Laboratory results reported in ChEMBL document CHEMBL4414679, “Discovery of 4,6-pyrimidinediamine derivatives as novel dual EGFR/FGFR inhibitors aimed EGFR/FGFR1-positive NSCLC” (Eur J Med Chem, 2020).

What was measured:
NCI-H226 [1] = assay: Antiproliferative activity against human NCI-H226 cells assessed as inhibition of cell growth at 10 uM incubated for 48 hrs by MTT assay relative to control; assay type: functional; conditions: NCI-H226, 48 h
[2] = molecular target: T1, Fibroblast growth factor receptor 1 (Homo sapiens, UniProt P11362); assay: Inhibition of N-terminal GST-tagged human FGFR1 cytoplasmic domain (398-822 AA) expressed in baculovirus at 10 uM using FAM-labelled peptide as substrate pre-incubated for 10 mins followed by substrate addition by mobility shift assay relative to control
Target sequence in this assay (P11362 22-822 limits assumed): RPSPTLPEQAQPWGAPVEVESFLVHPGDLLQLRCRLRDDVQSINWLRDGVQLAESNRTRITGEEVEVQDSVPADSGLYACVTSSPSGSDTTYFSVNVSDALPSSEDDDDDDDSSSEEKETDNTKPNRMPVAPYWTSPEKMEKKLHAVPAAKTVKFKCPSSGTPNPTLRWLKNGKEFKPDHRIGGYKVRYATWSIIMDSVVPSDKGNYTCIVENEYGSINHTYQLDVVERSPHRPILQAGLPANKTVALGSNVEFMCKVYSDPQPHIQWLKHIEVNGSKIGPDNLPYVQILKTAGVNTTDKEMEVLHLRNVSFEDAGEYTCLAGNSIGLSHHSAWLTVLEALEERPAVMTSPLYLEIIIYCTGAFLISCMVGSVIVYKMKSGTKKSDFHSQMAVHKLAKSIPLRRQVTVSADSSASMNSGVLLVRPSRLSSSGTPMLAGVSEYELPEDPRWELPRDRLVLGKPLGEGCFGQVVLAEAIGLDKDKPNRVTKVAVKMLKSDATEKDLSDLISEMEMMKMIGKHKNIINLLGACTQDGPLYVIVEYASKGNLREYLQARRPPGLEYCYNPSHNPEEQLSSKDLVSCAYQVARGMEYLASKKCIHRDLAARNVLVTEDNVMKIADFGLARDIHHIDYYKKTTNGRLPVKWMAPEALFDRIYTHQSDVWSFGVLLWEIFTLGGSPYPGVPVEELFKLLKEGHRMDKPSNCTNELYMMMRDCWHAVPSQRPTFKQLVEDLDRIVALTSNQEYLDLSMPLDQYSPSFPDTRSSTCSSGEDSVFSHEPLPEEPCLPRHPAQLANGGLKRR

HCC827 [3] = assay: Antiproliferative activity against human HCC827 cells assessed as inhibition of cell growth at 10 uM incubated for 48 hrs by MTT assay relative to control; assay type: functional; conditions: HCC827, 48 h
NCI-H520 [4] = assay: Antiproliferative activity against human NCI-H520 cells assessed as inhibition of cell growth at 10 uM incubated for 48 hrs by MTT assay relative to control; assay type: functional; conditions: NCI-H520, 48 h
[5] = molecular target: T2, Epidermal growth factor receptor (Homo sapiens, UniProt P00533); assay: Inhibition of N-terminal GST-tagged human EGFR (d746-750AA) expressed in baculovirus at 10 uM using FAM-labelled peptide as substrate pre-incubated for 10 mins followed by substrate addition by mobility shift assay relative to control
T2 sequence (P00533 whole entry, the tested form may be a part): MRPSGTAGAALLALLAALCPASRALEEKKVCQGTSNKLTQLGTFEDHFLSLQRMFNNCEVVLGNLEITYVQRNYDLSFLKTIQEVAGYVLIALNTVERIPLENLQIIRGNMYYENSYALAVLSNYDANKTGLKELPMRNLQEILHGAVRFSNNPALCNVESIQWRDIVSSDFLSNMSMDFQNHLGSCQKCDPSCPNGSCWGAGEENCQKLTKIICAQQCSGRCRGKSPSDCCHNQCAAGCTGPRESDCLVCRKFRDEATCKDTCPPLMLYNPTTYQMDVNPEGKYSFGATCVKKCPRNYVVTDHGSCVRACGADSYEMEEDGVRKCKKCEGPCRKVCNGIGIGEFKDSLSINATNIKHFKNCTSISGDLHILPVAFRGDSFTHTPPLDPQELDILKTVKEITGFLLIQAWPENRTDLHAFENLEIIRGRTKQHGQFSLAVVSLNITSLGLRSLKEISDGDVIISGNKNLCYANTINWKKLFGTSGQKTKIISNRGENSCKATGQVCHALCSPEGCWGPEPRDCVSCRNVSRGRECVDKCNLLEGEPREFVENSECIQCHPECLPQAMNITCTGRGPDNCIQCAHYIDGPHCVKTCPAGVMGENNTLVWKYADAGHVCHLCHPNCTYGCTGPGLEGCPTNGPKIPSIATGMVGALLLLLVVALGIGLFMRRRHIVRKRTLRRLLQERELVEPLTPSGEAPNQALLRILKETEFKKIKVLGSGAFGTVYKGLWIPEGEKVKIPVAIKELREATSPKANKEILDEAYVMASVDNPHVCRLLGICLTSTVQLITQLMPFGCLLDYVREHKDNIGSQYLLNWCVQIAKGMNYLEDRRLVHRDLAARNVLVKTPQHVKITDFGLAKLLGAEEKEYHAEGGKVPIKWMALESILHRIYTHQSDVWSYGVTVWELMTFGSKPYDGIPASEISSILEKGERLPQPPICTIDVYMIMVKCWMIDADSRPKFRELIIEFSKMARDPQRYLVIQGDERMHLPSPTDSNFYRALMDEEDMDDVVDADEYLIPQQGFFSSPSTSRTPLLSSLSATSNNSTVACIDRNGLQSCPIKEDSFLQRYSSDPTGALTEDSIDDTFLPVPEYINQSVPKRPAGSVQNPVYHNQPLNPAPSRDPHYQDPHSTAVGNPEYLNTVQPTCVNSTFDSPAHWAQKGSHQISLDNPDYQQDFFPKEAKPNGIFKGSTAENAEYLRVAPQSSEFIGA

[6] = molecular target: T2, Epidermal growth factor receptor; assay: Inhibition of N-terminal GST-tagged human EGFR cytoplasmic domain (669-1210 AA) expressed in baculovirus at 10 uM using FAM-labelled peptide as substrate pre-incubated for 10 mins followed by substrate addition by mobility shift assay relative to control
HCC827 [7] = assay: Antiproliferative activity against human HCC827 cells incubated for 48 hrs by MTT assay; assay type: functional, cell-based; conditions: HCC827, 48 h
NCI-H1581 [8] = assay: Antiproliferative activity against human NCI-H1581 cells incubated for 48 hrs by MTT assay; assay type: functional, cell-based; conditions: NCI-H1581, 48 h
NCI-H520 [9] = assay: Antiproliferative activity against human NCI-H520 cells incubated for 48 hrs by MTT assay; assay type: functional, cell-based; conditions: NCI-H520, 48 h
NCI-H1581 [10] = assay: Antiproliferative activity against human NCI-H1581 cells assessed as inhibition of cell growth at 10 uM incubated for 48 hrs by MTT assay relative to control; assay type: functional; conditions: NCI-H1581, 48 h
PC-9 [11] = assay: Antiproliferative activity against human PC9 cells incubated for 48 hrs by MTT assay; assay type: functional, cell-based; conditions: PC-9, 48 h
NCI-H226 [12] = assay: Antiproliferative activity against human NCI-H226 cells incubated for 48 hrs by MTT assay; assay type: functional, cell-based; conditions: NCI-H226, 48 h
[13] = tested on: Epidermal growth factor receptor (Homo sapiens), P00533 [L858R]; assay: Inhibition of recombinant human EGFR L858R mutant expressed in baculovirus at 10 uM using FAM-labelled peptide as substrate pre-incubated for 10 mins followed by substrate addition by mobility shift assay relative to control
Sequence of Epidermal growth factor receptor (Homo sapiens), P00533 [L858R] (P00533 whole entry L858R): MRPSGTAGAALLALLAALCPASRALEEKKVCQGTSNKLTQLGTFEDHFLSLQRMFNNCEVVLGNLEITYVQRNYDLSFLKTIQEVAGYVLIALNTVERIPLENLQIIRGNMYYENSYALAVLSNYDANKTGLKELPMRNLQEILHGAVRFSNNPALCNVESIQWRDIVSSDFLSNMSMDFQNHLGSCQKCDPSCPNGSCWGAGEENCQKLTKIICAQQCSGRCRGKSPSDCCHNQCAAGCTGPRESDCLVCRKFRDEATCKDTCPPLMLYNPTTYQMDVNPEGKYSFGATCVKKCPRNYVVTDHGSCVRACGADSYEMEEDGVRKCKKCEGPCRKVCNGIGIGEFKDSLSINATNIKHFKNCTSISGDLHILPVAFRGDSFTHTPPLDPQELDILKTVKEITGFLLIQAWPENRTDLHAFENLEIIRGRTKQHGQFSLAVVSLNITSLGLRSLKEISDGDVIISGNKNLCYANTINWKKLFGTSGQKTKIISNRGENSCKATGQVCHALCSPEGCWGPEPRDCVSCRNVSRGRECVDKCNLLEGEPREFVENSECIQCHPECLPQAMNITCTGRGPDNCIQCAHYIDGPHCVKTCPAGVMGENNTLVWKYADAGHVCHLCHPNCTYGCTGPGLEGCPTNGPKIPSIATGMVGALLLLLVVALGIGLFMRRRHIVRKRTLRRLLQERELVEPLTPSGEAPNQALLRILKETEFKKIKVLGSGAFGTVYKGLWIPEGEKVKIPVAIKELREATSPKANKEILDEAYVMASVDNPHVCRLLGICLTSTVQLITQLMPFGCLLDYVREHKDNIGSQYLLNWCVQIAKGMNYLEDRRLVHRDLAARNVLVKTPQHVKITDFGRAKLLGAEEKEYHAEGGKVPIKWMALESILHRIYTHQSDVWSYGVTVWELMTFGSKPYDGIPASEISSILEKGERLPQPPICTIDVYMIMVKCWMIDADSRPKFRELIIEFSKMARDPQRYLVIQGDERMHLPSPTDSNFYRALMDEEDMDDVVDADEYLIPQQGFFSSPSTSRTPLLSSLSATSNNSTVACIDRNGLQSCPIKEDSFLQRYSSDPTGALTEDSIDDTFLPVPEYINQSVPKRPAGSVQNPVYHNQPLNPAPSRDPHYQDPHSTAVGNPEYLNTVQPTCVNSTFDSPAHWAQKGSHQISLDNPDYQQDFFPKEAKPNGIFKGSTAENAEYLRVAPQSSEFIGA

PC-9 [14] = assay: Antiproliferative activity against human PC9 cells assessed as inhibition of cell growth at 10 uM incubated for 48 hrs by MTT assay relative to control; assay type: functional; conditions: PC-9, 48 h
[15] = molecular target: T1, Fibroblast growth factor receptor 1; assay: Inhibition of N-terminal GST-tagged human FGFR1 cytoplasmic domain (398-822 AA) expressed in baculovirus using FAM-labelled peptide as substrate pre-incubated for 10 mins followed by substrate addition by mobility shift assay
[16] = molecular target: T2, Epidermal growth factor receptor; assay: Inhibition of N-terminal GST-tagged human EGFR cytoplasmic domain (669-1210 AA) expressed in baculovirus using FAM-labelled peptide as substrate pre-incubated for 10 mins followed by substrate addition by mobility shift assay
[17] = molecular target: T2, Epidermal growth factor receptor; assay: Inhibition of N-terminal GST-tagged human EGFR (d746-750AA) expressed in baculovirus using FAM-labelled peptide as substrate pre-incubated for 10 mins followed by substrate addition by mobility shift assay
[18] = molecular target: Epidermal growth factor receptor (Homo sapiens, UniProt P00533, L858R); assay: Inhibition of recombinant human EGFR L858R mutant expressed in baculovirus using FAM-labelled peptide as substrate pre-incubated for 10 mins followed by substrate addition by mobility shift assay
Sequence of Epidermal growth factor receptor (Homo sapiens, UniProt P00533, L858R) (P00533 25-1210 L858R limits assumed): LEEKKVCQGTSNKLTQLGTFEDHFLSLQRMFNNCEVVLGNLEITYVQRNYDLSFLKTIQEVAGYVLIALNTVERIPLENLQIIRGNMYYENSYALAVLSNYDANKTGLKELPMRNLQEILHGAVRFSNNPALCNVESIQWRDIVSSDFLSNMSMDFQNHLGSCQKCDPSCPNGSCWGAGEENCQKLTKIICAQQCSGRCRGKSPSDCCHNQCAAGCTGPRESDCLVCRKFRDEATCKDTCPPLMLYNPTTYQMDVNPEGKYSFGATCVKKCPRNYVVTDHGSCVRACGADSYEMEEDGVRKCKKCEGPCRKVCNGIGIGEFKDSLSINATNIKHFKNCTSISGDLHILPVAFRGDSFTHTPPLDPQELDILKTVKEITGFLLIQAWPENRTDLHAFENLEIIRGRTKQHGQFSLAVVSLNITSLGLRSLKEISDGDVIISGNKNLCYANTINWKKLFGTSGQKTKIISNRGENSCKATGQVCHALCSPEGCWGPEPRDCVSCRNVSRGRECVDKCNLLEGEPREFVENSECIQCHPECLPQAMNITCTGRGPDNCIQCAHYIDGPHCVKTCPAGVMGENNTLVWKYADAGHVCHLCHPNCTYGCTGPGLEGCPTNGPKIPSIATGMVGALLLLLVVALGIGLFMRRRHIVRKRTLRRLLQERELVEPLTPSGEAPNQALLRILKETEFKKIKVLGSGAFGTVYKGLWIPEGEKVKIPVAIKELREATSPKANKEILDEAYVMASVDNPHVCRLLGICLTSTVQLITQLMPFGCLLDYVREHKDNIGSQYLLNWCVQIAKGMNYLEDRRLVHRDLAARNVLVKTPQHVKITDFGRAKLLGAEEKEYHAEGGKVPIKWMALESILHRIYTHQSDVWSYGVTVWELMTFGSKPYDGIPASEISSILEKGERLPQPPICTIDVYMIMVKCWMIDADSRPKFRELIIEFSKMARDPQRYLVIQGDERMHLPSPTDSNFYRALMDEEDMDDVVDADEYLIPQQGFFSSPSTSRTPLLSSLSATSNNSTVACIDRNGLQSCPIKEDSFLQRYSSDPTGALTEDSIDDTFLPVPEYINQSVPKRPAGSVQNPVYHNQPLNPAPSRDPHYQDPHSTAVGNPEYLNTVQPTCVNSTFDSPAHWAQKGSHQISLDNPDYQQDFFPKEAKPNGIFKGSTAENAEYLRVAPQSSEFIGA

Compound | inhibition at 10 µM (NCI-H226 [1]) | inhibition [2] | inhibition at 10 µM (HCC827 [3]) | inhibition at 10 µM (NCI-H520 [4]) | inhibition [5] | inhibition [6] | IC50 (HCC827 [7]) | IC50 (NCI-H1581 [8]) | IC50 (NCI-H520 [9]) | inhibition at 10 µM (NCI-H1581 [10]) | IC50 (PC-9 [11]) | IC50 (NCI-H226 [12]) | inhibition [13] | inhibition at 10 µM (PC-9 [14]) | IC50 [15] | IC50 [16] | IC50 [17] | IC50 [18]
COc1cc(NC(=O)Nc2cc(Nc3cc(OC)ccc3OC)ncn2)cc(OC)c1 | 41.1% | 3.4% | 63% | 34% | 65.7% | 63.3% | 3.24 µM | 8.39 µM | 7.52 µM | 40.7% | 5.92 µM | 7.39 µM | 60% | 59.5% |  |  |  | 
COc1cc(NC(=O)Nc2cc(Nc3cc(I)ccc3OC)ncn2)cc(OC)c1 | 56.7% | -2.1% | 71% | 55% | 60.2% | 58.7% | > 20 µM | 8.86 µM | 9.87 µM | 59% | 3.54 µM | 19.4 µM | 74% | 91% |  |  |  | 
COc1ccc(C(F)(F)F)cc1Nc1cc(NC(=O)Nc2c(Cl)cccc2Cl)ncn1 | 60.1% | 55.4% | 68.7% | 33% | 73% | 77.5% |  |  |  | 69% |  |  | 83.1% | 89% |  |  |  | 
COc1cc(NC(=O)Nc2cc(Nc3ccc(OC)c(C)c3)ncn2)cc(OC)c1 | 39.7% | 36.6% | 48.3% | 13.5% | 54.9% | 74.9% |  |  |  | 19.7% |  |  | 46.5% | 62% |  |  |  | 
Cc1ccc(Nc2cc(NC(=O)Nc3c(Cl)cccc3Cl)ncn2)cc1F | 40.7% | 51% | 85.3% | 33.5% | 87.1% | 77.8% |  |  |  | 45.3% |  |  | 67.2% | 92% |  |  |  | 
COc1cc(NC(=O)Nc2cc(Nc3cc(OC)cc(OC)c3)ncn2)cc(OC)c1 | 38.3% | 10.6% | 51.3% | 40.5% | 56.7% | 66.2% | 4.25 µM | 7.34 µM | 10.8 µM | 40.7% | 3.83 µM | 8.32 µM | 51.7% | 76.5% |  |  |  | 
COc1ccc(Br)cc1Nc1cc(NC(=O)Nc2c(Cl)cccc2Cl)ncn1 | 33% | 37.8% | 53% | 45% | 93.5% | 87.3% |  |  |  | 53.3% |  |  | 95.9% | 69% |  |  |  | 
COc1cc(NC(=O)Nc2cc(Nc3cc(Br)ccc3OC)ncn2)cc(OC)c1 | 42.7% | -1.5% | 76.3% | 43.5% | 45.2% | 51.4% |  |  |  | 23.1% |  |  | 52.4% | 82.5% |  |  |  | 
COc1ccc(Nc2cc(NC(=O)Nc3c(Cl)cccc3Cl)ncn2)cc1C | 50% | 50.4% | 63.1% | 29.1% | 67.4% | 47.3% |  |  |  | 45% |  |  | 76.4% | 80.1% |  |  |  | 
COc1cc(Nc2cc(NC(=O)Nc3c(Cl)cccc3Cl)ncn2)cc(C(F)(F)F)c1 | 33.1% | 0.9% | 57.7% | 23.1% | 48.4% | 40% |  |  |  | 32.3% |  |  | 69.3% | 88.5% |  |  |  | 
COc1cc(Br)ccc1Nc1cc(NC(=O)Nc2c(Cl)cccc2Cl)ncn1 | 43% | 12.6% | 42.7% | 29.1% | 75.9% | 65.6% |  |  |  | 47.3% |  |  | 83.2% | 90.5% |  |  |  | 
Cc1ccc(Nc2cc(NC(=O)Nc3c(Cl)cccc3Cl)ncn2)cc1C | 41.3% | 45.3% | 84.3% | 47.5% | 58.6% | 64.8% |  |  |  | 73.3% |  |  | 63.8% | 92.1% |  |  |  | 
CCc1ccc(Nc2cc(NC(=O)Nc3c(Cl)cccc3Cl)ncn2)cc1 | 39.5% | 47.3% | 58% | 31.5% | 89.2% | 79% |  |  |  | 38.1% |  |  | 89.4% | 70% |  |  |  | 
COc1cc(NC(=O)Nc2cc(Nc3cc(F)ccc3OC)ncn2)cc(OC)c1 | 37.7% | -1.6% | 59% | 38% | 35.4% | 31.1% |  |  |  | 42.1% |  |  | 54.6% | 59.5% |  |  |  | 
Cc1cc(F)cc(Nc2cc(NC(=O)Nc3c(Cl)cccc3Cl)ncn2)c1 | 78.1% | 70.3% | 49.1% | 60.5% | 89.7% | 79.2% | 18.6 µM | 4.78 µM | 3.78 µM | 65% | 2.79 µM | 2.96 µM | 91.9% | 80% | 1.22 µM | 0.528 µM | 0.253 µM | 0.174 µM
COc1ccc(F)cc1Nc1cc(NC(=O)Nc2c(Cl)cccc2Cl)ncn1 | 31.3% | 11.1% | 78% | 38% | 48.7% | 39.2% |  |  |  | 73.1% |  |  | 63.3% | 85.5% |  |  |  | 
CCc1ccc(Nc2cc(NC(=O)Nc3cc(OC)cc(OC)c3)ncn2)cc1 | 50.1% | 6.1% | 66.2% | 23.5% | 28.1% | 25.4% |  |  |  | 32.7% |  |  | 45.7% | 78% |  |  |  | 
CCc1cccc(Nc2cc(NC(=O)Nc3cc(OC)cc(OC)c3)ncn2)c1 | 36.7% | 1.1% | 52.6% | 23% | 26% | 10.1% |  |  |  | 27.7% |  |  | 41% | 82.1% |  |  |  | 
COc1cc(NC(=O)Nc2cc(Nc3cc(C(F)(F)F)ccc3OC)ncn2)cc(OC)c1 | 60% | 11% | 59.7% | 63% | 54.2% | 74.6% | 15.1 µM | 7.35 µM | 4.45 µM | 67% | 6.22 µM | 14.6 µM | 73.1% | 81.1% |  |  |  | 
COc1cc(NC(=O)Nc2cc(Nc3cc(C)cc(F)c3)ncn2)cc(OC)c1 | 35.3% | 1.1% | 62% | 24.5% | 16.7% | 8% |  |  |  | 28.3% |  |  | 23.1% | 64.5% |  |  |  | 
COc1cc(Nc2cc(NC(=O)Nc3c(Cl)cccc3Cl)ncn2)cc(OC)c1 | 60% | 74.2% | 73.7% | 55.5% | 84.2% | 87.3% | 13.3 µM | 5.32 µM | 10.5 µM | 68% | 3.18 µM | 16.9 µM | 79.4% | 90% | 1.1 µM | 0.315 µM | 0.332 µM | 0.49 µM
